In US10597388B2, “Pyridazinone herbicides” (FMC CORPORATION, priority 2014, dated 2020):

Tests used:
Experiment in all cases: Test C greenhouse herbicide test, pre- and postemergence
Assay type in all cases: in vivo
[1] = system: barnyardgrass (Echinochloa crus-galli)
Method in brief: (§1)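 Visual ratings on a 0 to 100 scale (0 = no effect, 100 = complete control) versus untreated controls, scored 13–15 d after treatment. Soil-applied preemergence to seeded loam/sand; foliar postemergence to 1- to 4-leaf plants (2–18 cm) in peat-vermiculite mix; compounds formulated in solvent plus surfactant.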

[2] = system: blackgrass (Alopecurus myosuroides)
Method in brief: as §1

corn (Zea mays) = system: corn (Zea mays)
Method in brief: as §1

[3] = system: crabgrass, large (large crabgrass, Digitaria sanguinalis)
Method in brief: as §1

[4] = system: foxtail, giant (giant foxtail, Setaria faberii)
Method in brief: as §1

[5] = system: galium (catchweed bedstraw, Galium aparine)
Method in brief: as §1

[6] = system: johnsongrass (Sorghum halepense)
Method in brief: as §1

[7] = system: lambsquarters (Chenopodium album)
Method in brief: as §1

[8] = system: morningglory (Ipomoea coccinea)
Method in brief: as §1

[9] = system: nutsedge, yellow (yellow nutsedge, Cyperus esculentus)
Method in brief: as §1

[10] = system: oilseed rape (Brassica napus)
Method in brief: as §1

[11] = system: pigweed (Amaranthus retroflexus)
Method in brief: as §1

[12] = system: ragweed (common ragweed, Ambrosia elatior)
Method in brief: as §1

[13] = system: ryegrass, Italian (Italian ryegrass, Lolium multiflorum)
Method in brief: as §1

[14] = system: velvetleaf (Abutilon theophrasti)
Method in brief: as §1

[15] = system: waterhemp (common waterhemp, Amaranthus rudis)
Method in brief: as §1

[16] = Postemergence, 31 g ai/ha, scale 0 to 100 (0 no effect, 100 complete control)
[17] = Postemergence, 62 g ai/ha, 0 to 100 scale (0 no effect, 100 complete control)
[18] = Postemergence, 250 g ai/ha, scale 0 to 100, 0 no effect, 100 complete control, 13 to 15 d
[19] = Preemergence, 31 g ai/ha, scale 0 to 100, 0 is no effect, 100 is complete control
[20] = Preemergence, 62 g ai/ha, scale 0 to 100, 0 is no effect, 100 is complete control
[21] = Preemergence, 125 g ai/ha, scale 0 to 100, 0 is no effect, 100 is complete control
[22] = Preemergence, 250 g ai/ha, scale 0 to 100 (0 no effect, 100 complete control)
[23] = postemergence, 125 g ai/ha, scale 0 to 100, 0 no effect, 100 complete control

COC(=O)Oc1c(Br)nn(C)c(=O)c1-c1c(C)ccc2ccccc12 [Compound 137]
Plant response rating, Barnyardgrass [1, 16]: 25
Barnyardgrass plant response rating [1, 17]: 40
Plant response rating, Barnyardgrass ([1]; Postemergence, 125 g ai/ha, scale 0 to 100, 0 is no effect, 100 is complete control): 50
Plant response rating, Barnyardgrass [1, 18]: 65
Plant response rating, Barnyardgrass [1, 19]: 35
Plant response rating, Barnyardgrass [1, 20]: 85
Plant response rating, Barnyardgrass [1, 21]: 90
Barnyardgrass plant response rating [1, 22]: 100
Plant response rating, Blackgrass [2, 16]: 0
Blackgrass plant response rating [2, 17]: 0
Plant response rating, Blackgrass [2, 18]: 0
Plant response rating, Blackgrass [2, 19]: 30
Plant response rating, Blackgrass [2, 20]: 40
Plant response rating, Blackgrass [2, 21]: 30
Blackgrass plant response rating [2, 22]: 90
Blackgrass plant response rating [2, 23]: 0
Plant response rating, Corn (corn (Zea mays); [16]): 5
Corn plant response rating (corn (Zea mays); [17]): 15
Plant response rating, Corn (corn (Zea mays); [18]): 20
Plant response rating, Corn (corn (Zea mays); [19]): 0
Plant response rating, Corn (corn (Zea mays); [20]): 10
Plant response rating, Corn (corn (Zea mays); [21]): 10
Corn plant response rating (corn (Zea mays); [22]): 55
Corn plant response rating (corn (Zea mays); [23]): 10
Plant response rating, Crabgrass, Large [3, 16]: 30
Crabgrass, Large plant response rating [3, 17]: 30
Plant response rating, Crabgrass, Large [3, 18]: 35
Plant response rating, Crabgrass, Large [3, 19]: 20
Plant response rating, Crabgrass, Large [3, 20]: 20
Plant response rating, Crabgrass, Large [3, 21]: 70
Crabgrass, Large plant response rating [3, 22]: 80
Crabgrass, Large plant response rating [3, 23]: 35
Plant response rating, Foxtail, Giant [4, 16]: 45
Foxtail, Giant plant response rating [4, 17]: 60
Plant response rating, Foxtail, Giant [4, 18]: 95
Plant response rating, Foxtail, Giant [4, 19]: 65
Plant response rating, Foxtail, Giant [4, 20]: 85
Plant response rating, Foxtail, Giant [4, 21]: 95
Foxtail, Giant plant response rating [4, 22]: 100
Foxtail, Giant plant response rating [4, 23]: 80
Plant response rating, Galium [5, 16]: 85
Galium plant response rating [5, 17]: 90
Plant response rating, Galium [5, 18]: 95
Plant response rating, Galium [5, 19]: 98
Plant response rating, Galium [5, 20]: 98
Plant response rating, Galium [5, 21]: 98
Galium plant response rating [5, 22]: 100
Galium plant response rating [5, 23]: 90
Plant response rating, Johnsongrass [6, 16]: 10
Johnsongrass plant response rating [6, 17]: 10
Plant response rating, Johnsongrass [6, 18]: 15
Plant response rating, Johnsongrass [6, 19]: 0
Plant response rating, Johnsongrass [6, 20]: 5
Plant response rating, Johnsongrass [6, 21]: 20
Johnsongrass plant response rating [6, 22]: 20
Johnsongrass plant response rating [6, 23]: 15
Plant response rating, Lambsquarters [7, 16]: 90
Lambsquarters plant response rating [7, 17]: 90
Plant response rating, Lambsquarters [7, 18]: 100
Plant response rating, Lambsquarters [7, 19]: 90
Plant response rating, Lambsquarters [7, 20]: 100
Plant response rating, Lambsquarters [7, 21]: 100
Lambsquarters plant response rating [7, 22]: 95
Lambsquarters plant response rating [7, 23]: 98
Plant response rating, Morningglory [8, 16]: 100
Morningglory plant response rating [8, 17]: 98
Plant response rating, Morningglory [8, 18]: 100
Plant response rating, Morningglory [8, 19]: 70
Plant response rating, Morningglory [8, 20]: 85
Plant response rating, Morningglory [8, 21]: 90
Morningglory plant response rating [8, 22]: 98
Morningglory plant response rating [8, 23]: 100
Plant response rating, Nutsedge, Yellow [9, 16]: 65
Nutsedge, Yellow plant response rating [9, 17]: 85
Plant response rating, Nutsedge, Yellow [9, 18]: 90
Plant response rating, Nutsedge, Yellow [9, 19]: 55
Plant response rating, Nutsedge, Yellow [9, 20]: 85
Plant response rating, Nutsedge, Yellow [9, 21]: 90
Nutsedge, Yellow plant response rating [9, 22]: 95
Nutsedge, Yellow plant response rating [9, 23]: 85
Plant response rating, Oilseed Rape [10, 16]: 95
Oilseed Rape plant response rating [10, 17]: 98
Plant response rating, Oilseed Rape [10, 18]: 98
Plant response rating, Oilseed Rape [10, 19]: 0
Plant response rating, Oilseed Rape [10, 20]: 90
Plant response rating, Oilseed Rape [10, 21]: 50
Oilseed Rape plant response rating [10, 22]: 90
Oilseed Rape plant response rating [10, 23]: 98
Plant response rating, Pigweed [11, 16]: 90
Pigweed plant response rating [11, 17]: 98
Plant response rating, Pigweed [11, 18]: 100
Plant response rating, Pigweed [11, 19]: 100
Plant response rating, Pigweed [11, 20]: 100
Plant response rating, Pigweed [11, 21]: 100
Pigweed plant response rating [11, 22]: 100
Pigweed plant response rating [11, 23]: 98
Plant response rating, Ragweed [12, 16]: 10
Ragweed plant response rating [12, 17]: 20
Plant response rating, Ragweed [12, 18]: 40
Plant response rating, Ragweed [12, 19]: 80
Plant response rating, Ragweed [12, 20]: 95
Plant response rating, Ragweed [12, 21]: 95
Ragweed plant response rating [12, 22]: 100
Ragweed plant response rating [12, 23]: 30
Plant response rating, Ryegrass, Italian [13, 16]: 10
Ryegrass, Italian plant response rating [13, 17]: 30
Plant response rating, Ryegrass, Italian [13, 18]: 60
Plant response rating, Ryegrass, Italian [13, 19]: 85
Plant response rating, Ryegrass, Italian [13, 20]: 95
Plant response rating, Ryegrass, Italian [13, 21]: 100
Ryegrass, Italian plant response rating [13, 22]: 100
Ryegrass, Italian plant response rating [13, 23]: 30
Plant response rating, Velvetleaf [14, 16]: 85
Velvetleaf plant response rating [14, 17]: 90
Plant response rating, Velvetleaf [14, 18]: 95
Plant response rating, Velvetleaf [14, 19]: 80
Plant response rating, Velvetleaf [14, 20]: 100
Plant response rating, Velvetleaf [14, 21]: 100
Velvetleaf plant response rating [14, 22]: 100
Velvetleaf plant response rating [14, 23]: 90
Plant response rating, Waterhemp [15, 16]: 85
Waterhemp plant response rating [15, 17]: 65
Plant response rating, Waterhemp [15, 18]: 90
Plant response rating, Waterhemp [15, 19]: 85
Plant response rating, Waterhemp [15, 20]: 98
Plant response rating, Waterhemp [15, 21]: 95
Waterhemp plant response rating [15, 22]: 98
Waterhemp plant response rating [15, 23]: 85
